From patent US20180207228A1, “PEPTIDE COMBINATIONS AND USES THEREOF FOR TREATING GRASS ALLERGY” (ALK-Abelló A/S, priority 2015, published 2018)
Where no end group is shown, it is not given here.

What was measured:
[1] = test system: grass pollen allergic donor derived TCL-03 lines; experiment: Extended cross-reactivity study, proliferation on TCL03 DK1+DK2 (Study XR2), scoring; type: cell-based, human; design: Cross-reactivity score: scale not given here; settings: for cross-reactivity of homologue / cross-reactivity score of homologue: 2 μg/ml, 20 donors; for cross-reactivity score of homologue: score 0 to 7
[2] = test system: allergen specific T cells; experiment: T cell proliferation assay (72 h) on donor derived T cell lines (TCL02/TCL03); type: cell-based, human; settings: 2 μg/ml, TCL-02 DK-2, 21 donors
Source text: Isolated PBMCs (peripheral blood mononuclear cells) obtained from the donors described in Example 2 were CD8 depleted and the T cell lines were established by stimulating the cultures with nPhl p1, mix of nPhl p 2 and […] 5 and […] established for each of the donors tested by stimulating with the mixture of above listed allergens. Grass allergic donors were recruited (cohort DK1 including 30 grass allergic individuals, DK2 including 24 grass allergic individuals and US1 including 15 grass allergic individuals). PBMCs were isolated from freshly drawn heparinized blood by gradient centrifugation on lymphoprep (Nycomed, Norway), washed twice and re-suspended in RPMI 1640 medium with HEPES and ultraglutamine (Cambrex, Belgium) supplemented with 5% v/v human AB-serum (Cambrex, Belgium), 100 units/ml penicillin, and 0.1 mg/ml streptomycin (Sigma, St Louis, USA) (referred to as 5% AB-medium). Aliquots of the isolated PBMCs were frozen and were thawed later to stimulate the T cell lines. Additionally either fresh or thawed PBMCs were used as antigen presenting cells (APCs) in the proliferation assay as described later. In some cases the PBMCs were freezed at this stage and thawed later on to continue the experiment as described in the following. The isolated PBMCs (fresh or thawed) were CD8 depleted by MACS magnetic depletion according to the manufacturer's instructions (Miltenyi Biotec, Bergisch Gladbach, Germany). On day 0 the CD8-depleted PBMCs (2×10^6/ml) were stimulated in 1 ml bulk cultures in AB medium in 24 well plates (Nunc, Denmark) with the mixture of natural allergens: nPhl p 1 (0.5 μg/ml), mix of […]). […] On day 14 cells were harvested to obtain T cell line generation 01 (referred to as TCL01). Restimulation of T cell lines were performed in AB-medium with the thawed autologous PBMCs (10^6/well, irradiated 2500 Rad), the above mixture of natural allergens (concentration as mentioned above), and PHA-P (0.5 μg/ml, Difco, Detroit, Mich., USA). rIL-2 was added at day 17, 18 and 19. On day 24 cells were harvested to obtain T cell line generation 02 (referred as TCL02). T cells were isolated, washed, counted and used for T cell proliferation assay as described later. Remaining cells were frozen for later thawing and re-stimulations. The T cell line generation 2 (TCL02) were thawed and were re-stimulated with allogeneic Epstein Bar Virus transformed lymphoblastoid cell lines (EBV) B cells (JY cells, 10^5/well, irradiated 3500 Rad), allogeneic PBMCs (10^6/well, irradiated 2500 Rad), and 0.5 μg/ml PHA-P and subsequent addition of rIL-2 at days 3-5 to generate T cell line generation 03 (referred to as TCL03). […] To summarize ELISpot experiments were carried out at day 14 (with TCL01) and proliferation assay on either day 24 (with TCL02) or at day 34 (with TCL03). […] To ensure that all T cell epitopes regions from the major and intermediate grass allergens of the grass were identified T cell screening was carried out with either overlapping peptides or selected peptides. […] These were overlapping 20-mer peptides spanning the entire full length amino acid sequence of […] and selected high binder peptides from Phl p 4 were tested. Additionally 21, 15 mer peptides were tested which were derived from various group 1 and 5 allergens. Also, 67 peptides from homologous grass allergens were tested. Finally some reference peptides and mixes thereof were also tested. The 15-mer peptides were selected on the basis of predicted and measured promiscuous HLA binding and of sequence homology between known proteins sequences from the relevant pooideae grasses and the Bermuda grass. […] To get comprehensive data from all the donors the peptides were tested in both Fluorospot/Elispot (day 14, TCL01) and proliferation (day 24, TCL02).

[3] = homologue of peptide 238 (Phl p 5), Table 48
[4] = homologue of peptide 207 (Phl p 1), Table 43
[5] = homologue of peptide 285, Table 50
[6] = homologue of peptide 206 (Phl p 1), Table 42

## CC[C@H](C)[C@H](NC(=O)[C@H](CC(N)=O)NC(=O)[C@H](CC(C)C)NC(=O)[C@@H](NC(=O)[C@H](CC(C)C)NC(=O)[C@@H](NC(=O)[C@H](CCCCN)NC(=O)[C@H](C)NC(=O)[C@H](CC(=O)O)NC(=O)[C@H](CO)NC(=O)CN)[C@@H](C)O)C(C)C)C(=O)N[C@@H](CCCCN)C(=O)N[C@@H](Cc1ccc(O)cc1)C(=O)N[C@H](C(=O)N[C@@H](CCCNC(=N)N)C(=O)N1CCC[C@H]1C(=O)NCC(=O)N[C@@H](CC(=O)O)C(=O)N[C@H](C(=O)N[C@@H](CC(C)C)C(=O)O)[C@@H](C)O)[C@@H](C)O [compound 328]
[1]
  cross-reactivity of homologue: considerable cross-reactivity
[1]; homologue of peptide 217 (Phl p 3), Table 45
  Cross-reactivity score: 5

## CC[C@H](C)[C@H](NC(=O)[C@H](Cc1ccccc1)NC(=O)[C@H](CCCCN)NC(=O)[C@H](Cc1ccc(O)cc1)NC(=O)[C@@H](NC(=O)[C@H](CCC(=O)O)NC(=O)[C@H](Cc1ccc(O)cc1)NC(=O)[C@H](C)NC(=O)CNC(=O)[C@H](C)NC(=O)[C@@H](NC(=O)[C@@H](N)CO)[C@@H](C)O)[C@@H](C)O)C(=O)N1CCC[C@H]1C(=O)N[C@@H](CO)C(=O)N[C@@H](CC(C)C)C(=O)N[C@@H](CCC(=O)O)C(=O)N[C@@H](C)C(=O)N[C@@H](C)C(=O)N[C@H](C(=O)N[C@@H](CCCCN)C(=O)O)C(C)C [compound 363]
[1]; [3]
  Cross-reactivity score: 5

## CC[C@H](C)[C@H](NC(=O)[C@H](Cc1ccccc1)NC(=O)[C@H](CCCCN)NC(=O)[C@H](Cc1ccc(O)cc1)NC(=O)[C@@H](NC(=O)[C@H](CCC(=O)O)NC(=O)[C@H](Cc1ccc(O)cc1)NC(=O)[C@H](C)NC(=O)CNC(=O)CNC(=O)[C@@H](NC(=O)[C@@H](N)CO)[C@@H](C)O)[C@@H](C)O)C(=O)N1CCC[C@H]1C(=O)N[C@@H](CO)C(=O)N[C@@H](CC(C)C)C(=O)N[C@@H](CCC(=O)O)C(=O)N[C@@H](C)C(=O)N[C@@H](C)C(=O)N[C@H](C(=O)N[C@@H](CCCCN)C(=O)O)C(C)C [compound 405]
[1]; [3]
  Cross-reactivity score: 5

## CC[C@H](C)[C@H](NC(=O)[C@H](Cc1ccccc1)NC(=O)[C@@H](N)CCCCN)C(=O)N1CCC[C@H]1C(=O)N[C@@H](C)C(=O)N[C@@H](CC(C)C)C(=O)N[C@@H](CCC(=O)O)C(=O)N[C@@H](C)C(=O)N[C@@H](C)C(=O)N[C@H](C(=O)N[C@@H](CCCCN)C(=O)N[C@@H](CCC(N)=O)C(=O)N[C@@H](CO)C(=O)N[C@@H](Cc1ccc(O)cc1)C(=O)N[C@@H](C)C(=O)N[C@@H](C)C(=O)N[C@H](C(=O)N[C@H](C(=O)N[C@@H](C)C(=O)N[C@H](C(=O)O)[C@@H](C)O)C(C)C)[C@@H](C)O)C(C)C [compound 409]
[1]; homologue of peptide 239 (Phl p 5), Table 49
  Cross-reactivity score: 7

## AGELELKFRRVKSEYPEGTK-OH [compound 385]
[1]; [4]
  Cross-reactivity score: 1

## AGELELQFRRVKSKYPDGTK-OH [compound 383]
[1]
  cross-reactivity of homologue: considerable cross-reactivity
[1]; [4]
  Cross-reactivity score: 6

## AGELELQFRRVKSKYPEGTK-OH [compound 382]
[1]
  cross-reactivity of homologue: considerable cross-reactivity
[1]; [4]
  Cross-reactivity score: 3

## AGELTLQFRRVKSKYPSGTK-OH [compound 318]
[1]; [4]
  Cross-reactivity score: 0

## AYESYKFIPTLEAAVKQAYA-OH [compound 413]
[1]; [5]
  Cross-reactivity score: 6

## AYQSYKFIPALEAAVKQSYA-OH [compound 416]
[1]
  cross-reactivity score of homologue: 1
[1]; [5]
  Cross-reactivity score: 1

## ERDFLTSLTKDIPPRQLYAK-OH [compound 398]
[1]
  cross-reactivity score of homologue: 1
[1]; homologue of peptide 222 (Phl p 4), Table 46
  Cross-reactivity score: 1

## GEEDKLRKAGELMLQFRRVK-OH [compound 376]
[1]; [6]
  Cross-reactivity score: 0

## GEEEKLRKAGIIDMKFRRVK-OH [compound 381]
[1]; [6]
  Cross-reactivity score: 0.5

## GEEENVRGAGELELQFRRVK-OH [compound 379]
[1]; [6]
  Cross-reactivity score: 1

## GEEQKLRSAGELELKFRRVK-OH [compound 380]
[1]; [6]
  Cross-reactivity score: 0.5

## GEEQKLRSAGELELQFRRVK-OH [compound 377]
[1]; [6]
  Cross-reactivity score: 2

## YHFDLSGHAFGSMAKKGEEQ-OH [compound 303]
[2]
  donor coverage of homologue peptide compared with native Phleum peptide: comparable to the native peptides

## YHFDLSGKAFGAMAKKGQED-OH [compound 316]
[2]
  donor coverage of homologue peptide compared with native Phleum peptide: comparable to the native peptides
